Measurements reported in patent US20220249440A1, “MUSCLE RE[…]” (SATO PHARMACEUTICAL CO., LTD., priority 2019, published 2022).

Experiments:
[1] = system: muscle-damaged model animal (CTX administered to tibialis anterior muscle); experiment: Muscle regeneration in cardiotoxin (CTX) muscle-damaged model animal; area of regenerated single muscle fibers with central nuclei in tibialis anterior muscle; type: in vivo, C57BL/6 male mice; settings: 10 μL intramuscular into tibialis anterior muscle once a day from day before CTX to 6 day after CTX; for increase in the mean muscle fiber area of regenerated muscle as compared with the Vehicle administration group: 7 days after CTX, P<0.0001; for histogram of the regenerated single-muscle fiber area vs Vehicle administration group: muscle collected 7 days after CTX
Protocol: Seven-week old C57BL/6 male mice (CLEA Japan, Inc.) were purchased, and used for experiment at the age of 8 weeks.
A model animal to which muscle damage had been caused by administration of snake venom cardiotoxin (CTX) was used. The muscle-damaged model animal has been widely used in studies on the regeneration from muscle damage.
Under the anesthesia with isoflurane, 50 μL of 10 μM CTX was administered to the tibialis anterior muscle of the right hindlimb of the mouse. After 7 days of the administration of CTX, the tibialis anterior muscle was collected by dissection, and supplied to the preparation of a muscle tissue section.
Immediately after the collection of the tibialis anterior muscle, the tibialis anterior muscle was immersed in isopentane cooled with liquid nitrogen and was rapidly frozen. The frozen muscle tissue was cut into slices each having a thickness of 10 μm by using a cryostat (Leica Biosystems), and the slice was attached onto an antistripping coated slide glass (Matsunami Glass Ind., Ltd).
A muscle tissue section was sufficiently air dried for 30 minutes under room temperature. After that, the muscle tissue section was fixed by immersing it in acetone cooled to −30° C. and treating at −30° C. for 20 minutes. The fixed section was air dried once and washed with PBS. Then the section was blocked by dropwisely adding a blocking reagent (Blocking One, NACALAI TESQUE, INC.) to the section and being subjected to the blocking treatment for 1 hour. Next, a primary antibody (Anti-Laminin-2 (α-2 Chain) antibody, Rat monoclonal (Sigma-Aldrich)) obtained by being diluted 500 times with the blocking reagent was added dropwise, and the reaction was conducted at overnight at 4° C. Since laminin to which a primary antibody binds is a protein expressed in all muscle cells, the primary antibody was used in this experiment in order to measure the area of individual muscle cells in a section. The muscle tissue section after the reaction with the primary antibody was washed with PBS, and then was reacted for 1 hour with a secondary antibody (CF 488A Goat Anti-Rat IgG (H+L) (Biotium)) obtained by being diluted 500 times with the blocking reagent. The secondary antibody that is an anti-rat antibody conjugated with a fluorescent dye binds to the primary antibody, and stains the laminin. The muscle tissue section after the reaction with the secondary antibody was washed with PBS, and sealed by using “[…] Hard⋅Set with DAPI” (Vector), and then the fluorescence observation was performed with an inverted microscope FSX100 (OLYMPUS). The “[…] Hard⋅Set with DAPI” was used for staining the central nucleus of muscle cells.
The muscle regeneration was evaluated on the basis of the image data taken from the fluorescence observation. In this experiment, muscle cells each having a central nucleus (single muscle fibers having central nuclei) were used as an indicator for regenerated muscle. After the image data was taken into image analysis software ImageJ (NIH), a muscle cell having a central nucleus was extracted. The cross-sectional area of the extracted individual cells was measured on the basis of the cell membrane stained with laminin. For the area measurement, “Analyze Particles” that is an add-in analysis program on ImageJ was used. The measurement results were shown as a distribution chart (histogram) of the area and number of regenerated single-muscle fibers, and as an average value of the cross-sectional areas of all the regenerated single muscle fibers (mean muscle fiber area).

5-HT2B receptor = 5-HT2B receptor (Homo sapiens, UniProt P41595); settings: cited literature: Br. J. Pharmacol. 128(1):13-20, 1999; J. Pharmacol. Exp. Ther. 347(3):645-59, 2013; cited from earlier work
[2] = 5 mM in PBS with 5% dimethyl sulfoxide

Chain of 5-HT2B receptor (P41595 whole entry): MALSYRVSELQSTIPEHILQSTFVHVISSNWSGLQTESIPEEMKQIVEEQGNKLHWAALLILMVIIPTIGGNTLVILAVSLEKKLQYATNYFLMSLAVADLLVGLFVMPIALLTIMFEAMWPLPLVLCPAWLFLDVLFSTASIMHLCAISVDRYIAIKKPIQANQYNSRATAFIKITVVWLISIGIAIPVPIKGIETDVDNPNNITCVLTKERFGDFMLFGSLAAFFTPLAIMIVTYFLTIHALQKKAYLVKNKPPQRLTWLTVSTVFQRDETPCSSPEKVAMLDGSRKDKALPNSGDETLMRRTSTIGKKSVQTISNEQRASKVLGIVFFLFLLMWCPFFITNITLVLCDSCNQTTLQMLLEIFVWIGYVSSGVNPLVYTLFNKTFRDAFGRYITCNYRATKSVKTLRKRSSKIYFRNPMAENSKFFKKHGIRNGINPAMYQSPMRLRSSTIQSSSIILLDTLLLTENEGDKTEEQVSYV

Compound | increase in the mean muscle fiber area of regenerated muscle as compared with the Vehicle administration group ([1]; 10 mM in PBS) [%] | histogram of the regenerated single-muscle fiber area vs Vehicle administration group ([1]; 10 mM in PBS) | 5-HT2B receptor agonist activity (known from literature) (5-HT2B receptor) | increase in the mean muscle fiber area of regenerated muscle as compared with the Vehicle administration group [1, 2] [%] | histogram of the regenerated single-muscle fiber area vs Vehicle administration group [1, 2]
Cn1c2c(c3ccccc31)CCNCC2 [PNU 22394, 6-methyl-1,2,3,4,5,6-hexahydroazepino[4,5-b]indole] | 8.5 | shifted to the right side | 5-HT2B receptor agonist | – | –
CC(N)Cc1c[nH]c2ccc(OCc3cccs3)cc12 (stereo not drawn) [BW723C86, 1-(5-(thiophen-2-ylmethoxy)-1H-indol-3-yl)propan-2-amine] | – | – | selective 5-HT2B receptor agonist | 9.5 | shifted to the right side
CC(N)Cc1c[nH]c2ccc(O)cc12 (stereo not drawn) [α-methyl-5-HT, 3-(2-aminopropyl)-1H-indol-5-ol] | – | – | 5-HT2B receptor agonist | 23 | shifted to the right side
